The structures appear in SMILES notation.

The subject of experiment [1] is CHEAL (Lambsquarters, Common). Nature of the experiment: Postemergence herbicidal evaluation. Type of experiment: in vivo, Chenopodium album. The note with it: for herbicidal rating CHEAL / CHEAL herbicidal rating: postemergence. The method in brief:
(§1)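 Scores (0–9) reflect plant stand, vigor, malformation, size, chlorosis and general appearance relative to control, read 4 to 5 weeks after treatment and averaged where tests were repeated. Application: about 0.0156–0.500 kg/ha sprayed at 40 psi onto two-week seedlings.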

In experiment [2] the test system is TRZAWR (Wheat, Winter, cv Riband). Put plainly: Postemergence herbicidal evaluation. Type of experiment: in vivo, Triticum aestivum. The note with it: for herbicidal rating TRZAWR / TRZAWR herbicidal rating: postemergence. Summed up: as §1
Experiment [3] has as its system CHEAL (Lambsquarters, Common). Put plainly: Preemergence herbicidal evaluation. Type of experiment: in vivo, Chenopodium album. Conditions: rated 4-5 weeks after treatment. Summed up:
(§2)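 Sown cups got a single aqueous acetone spray of test compound (roughly 0.0156–0.500 kg/ha) before seedlings emerged. Evaluation, 4–5 weeks on, used a 0–9 visual scale covering plant stand, vigor, size, malformation, chlorosis and general appearance compared with controls.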

The next experiment deals with ORYSAT (Rice, Tebonnet). Put plainly: Preemergence herbicidal evaluation. Type of experiment: in vivo, Oryza sativa, (L.) Tebonnet. Conditions: rated 4-5 weeks after treatment. Summed up:
as §2

A further experiment deals with CASOB (Sicklepod). Put plainly: Postemergence herbicidal evaluation. Type of experiment: in vivo, Cassia obtusifolia. Conditions: for herbicidal rating CASOB / CASOB herbicidal rating: postemergence. Summed up: as §1
[4] abbreviates: rate 0.0313 kg/ha, rating scale 0-9.
The mark [5] stands for this setting: rate 0.0625 kg/ha, rating scale 0-9.
Where [6] appears, read: rate 0.1250 kg/ha, rating scale 0-9.
The mark [7] stands for this setting: rate 0.2500 kg/ha, rating scale 0-9.

As to `Cn1c(C(F)(F)F)cc(=O)n(-c2cc(N=C3SCC(=O)N3Cc3ccco3)c(Cl)cc2F)c1=O` [Compound 122, 3-{4-Chloro-2-fluoro-5-[(3-furfuryl-4-oxo-2-thiazolidinylidene)amino]phenyl}-1-methyl-6-(trifluoromethyl)-2,4(1H,3H)-pyrimidinedione], the “herbicidal rating CHEAL” value in experiment [1] (rate 0.0156 kg/ha) worked out at 6.0; in experiment [1] (rate 0.0313 kg/ha), 9.0; in experiment [1] (rate 0.0625 kg/ha), 9.0; in experiment [1] (rate 0.1250 kg/ha), 9.0. Besides, the “herbicidal rating TRZAWR” value in experiment [2] (rate 0.0156 kg/ha) is 3.0; in experiment [2] (rate 0.0313 kg/ha), 3.5; in experiment [2] (rate 0.0625 kg/ha), 4.5; in experiment [2] (rate 0.1250 kg/ha), 5.0. Moreover, the “Preemergence herbicidal rating CHEAL” value is 9.0 in experiment [3] (rate 0.0156 kg/ha); 9.0 in experiment [3] (rate 0.0313 kg/ha); 7.0 in experiment [3] (rate 0.0625 kg/ha); 9.0 in experiment [3] (rate 0.1250 kg/ha); 9.0 in experiment [3] (rate 0.2500 kg/ha); 9.0 in experiment [3] (rate 0.5000 kg/ha). Besides, the “Preemergence herbicidal rating ORYSAT” value in the experiment with ORYSAT (Rice, Tebonnet) (rate 0.0156 kg/ha) is recorded as 0.0; with ORYSAT (Rice, Tebonnet) (rate 0.0313 kg/ha) it was 0.0; in the experiment with ORYSAT (Rice, Tebonnet) (rate 0.0625 kg/ha), 0.0; in the experiment with ORYSAT (Rice, Tebonnet) (rate 0.1250 kg/ha), 0.0; in the experiment with ORYSAT (Rice, Tebonnet) (rate 0.2500 kg/ha), 0.0; in the experiment on ORYSAT (Rice, Tebonnet) (rate 0.5000 kg/ha), 1.0. Besides, the “herbicidal rating CASOB” value in the experiment on CASOB (Sicklepod) (rate 0.0156 kg/ha) came to 1.0; in the experiment with CASOB (Sicklepod) (rate 0.0313 kg/ha) it was 3.0; in the experiment with CASOB (Sicklepod) (rate 0.0625 kg/ha), 3.0; with CASOB (Sicklepod) (rate 0.1250 kg/ha), 4.0.

`CCOC(=O)CN1CCSC1=Nc1cc(-n2nc(C)n(C(F)F)c2=O)c(F)cc1Cl` [Compound 36]: the “Postemergence herbicidal rating CHEAL” value is on record as 2.0 in experiment [1] (Rate 0.0158 kg/ha), 3.0 in experiment [1] (Rate 0.0315 kg/ha) and 4.0 in experiment [1] (Rate 0.0630 kg/ha). The “Postemergence herbicidal rating TRZAWR” value is recorded as 1.5 in experiment [2] (Rate 0.0158 kg/ha), 2.5 in experiment [2] (Rate 0.0315 kg/ha) and 3.5 in experiment [2] (Rate 0.0630 kg/ha). The “Preemergence herbicidal rating CHEAL” value in experiment [3] (rate 0.0625 kg/ha) is listed as 0.0; in experiment [3] (rate 0.1250 kg/ha), 9.0; in experiment [3] (rate 0.2500 kg/ha), 9.0. Also, the “Preemergence herbicidal rating ORYSAT” value is reported as 0.0 in the experiment with ORYSAT (Rice, Tebonnet) (rate 0.0625 kg/ha); 0.0 in the experiment on ORYSAT (Rice, Tebonnet) (rate 0.1250 kg/ha); 4.0 in the experiment on ORYSAT (Rice, Tebonnet) (rate 0.2500 kg/ha). In addition, the “Postemergence herbicidal rating CASOB” value in the experiment on CASOB (Sicklepod) (Rate 0.0158 kg/ha), in the experiment on CASOB (Sicklepod) (Rate 0.0315 kg/ha) and in the experiment with CASOB (Sicklepod) (Rate 0.0630 kg/ha) was 0.0 throughout.

As for `Cn1c(C(F)(F)F)cc(=O)n(-c2cc(N=C3SCC(=O)N3C3CC3)c(Cl)cc2F)c1=O` [Compound 152, 3-{4-Chloro-5-[(3-cyclopropyl-4-oxo-2-thiazolidinylidene)amino]-2-fluorophenyl}-1-methyl-6-(trifluoromethyl)-2,4(1H,3H)-pyrimidinedione], the “herbicidal rating CHEAL” value was 0.0 in experiment [1] (rate 0.0156 kg/ha), 4.0 in experiment [1] (rate 0.0313 kg/ha) and 9.0 in experiment [1] (rate 0.0625 kg/ha). For the same compound, the “herbicidal rating TRZAWR” value in experiment [2] (rate 0.0156 kg/ha) is recorded as 3.0; in experiment [2] (rate 0.0313 kg/ha), 3.5; in experiment [2] (rate 0.0625 kg/ha) it was 4.0. Further, the “Preemergence herbicidal rating CHEAL” value stood at 2.0 in experiment [3] (setting [4]), 9.0 in experiment [3] (setting [5]), 9.0 in experiment [3] (setting [6]) and 9.0 in experiment [3] (setting [7]). Further, the “Preemergence herbicidal rating ORYSAT” value with ORYSAT (Rice, Tebonnet) (setting [4]) amounted to 0.0; with ORYSAT (Rice, Tebonnet) (setting [5]) it was 1.0; in the experiment with ORYSAT (Rice, Tebonnet) (setting [6]), 1.0; in the experiment with ORYSAT (Rice, Tebonnet) (setting [7]), 1.0. In addition, the “herbicidal rating CASOB” value in the experiment on CASOB (Sicklepod) (rate 0.0156 kg/ha) worked out at 0.0; with CASOB (Sicklepod) (rate 0.0313 kg/ha) it was 0.0; with CASOB (Sicklepod) (rate 0.0625 kg/ha), 3.0.

Consider `CCOC(=O)[C@H](C)N1C(=O)CSC1=Nc1cc(-n2c(=O)cc(C(F)(F)F)n(C)c2=O)c(F)cc1Cl` [Compound 76, Ethyl 2-{{2-chloro-5-[3,6-dihydro-3-methyl-2,6-dioxo-4-(trifluoromethyl)-1(2H)-pyrimidinyl]-4-fluorophenyl}imino}-α-methyl-4-oxo-3-thiazolidineacetate, L-], for which the results for the CHEAL herbicidal rating in experiment [1] (rate 0.0158 kg/ha), in experiment [1] (rate 0.0315 kg/ha) and in experiment [1] (rate 0.0630 kg/ha) were 3.0, 7.0 and 7.0, respectively. Further, the TRZAWR herbicidal rating in experiment [2] (rate 0.0158 kg/ha) was determined as 3.5; in experiment [2] (rate 0.0315 kg/ha), 5.0; in experiment [2] (rate 0.0630 kg/ha), 5.5. Further, the “Preemergence herbicidal rating CHEAL” value in experiment [3] (rate 0.0156 kg/ha), in experiment [3] (rate 0.0313 kg/ha), in experiment [3] (rate 0.0625 kg/ha), in experiment [3] (rate 0.1250 kg/ha) and in experiment [3] (rate 0.2500 kg/ha) was 9.0 throughout. The “Preemergence herbicidal rating ORYSAT” value amounted to 0.0 with ORYSAT (Rice, Tebonnet) (rate 0.0156 kg/ha); 0.0 in the experiment on ORYSAT (Rice, Tebonnet) (rate 0.0313 kg/ha); 3.0 with ORYSAT (Rice, Tebonnet) (rate 0.0625 kg/ha); 4.0 in the experiment on ORYSAT (Rice, Tebonnet) (rate 0.1250 kg/ha); 5.0 in the experiment on ORYSAT (Rice, Tebonnet) (rate 0.2500 kg/ha). For the same compound, the CASOB herbicidal rating with CASOB (Sicklepod) (rate 0.0158 kg/ha) came to 1.0; in the experiment on CASOB (Sicklepod) (rate 0.0315 kg/ha), 4.0; in the experiment with CASOB (Sicklepod) (rate 0.0630 kg/ha), 5.0.

As for `COc1cccc(CN2C(=O)CSC2=Nc2cc(-n3c(=O)cc(C(F)(F)F)n(C)c3=O)c(F)cc2Cl)c1` [Compound 137, 3-{4-Chloro-2-fluoro-5-{[3-(m-methoxybenzyl)-4-oxo-2-thiazolidinylidene]amino}phenyl}-1-methyl-6-(trifluoromethyl)-2,4(1H,3H)-pyrimidinedione], the figures for the “herbicidal rating CHEAL” value in experiment [1] (rate 0.0156 kg/ha), in experiment [1] (rate 0.0313 kg/ha) and in experiment [1] (rate 0.0625 kg/ha) were 6.0, 9.0 and 9.0, respectively. For the same compound, the “herbicidal rating TRZAWR” value in experiment [2] (rate 0.0156 kg/ha) stood at 3.5; in experiment [2] (rate 0.0313 kg/ha) it was 3.0; in experiment [2] (rate 0.0625 kg/ha), 4.5. For the same compound, the “Preemergence herbicidal rating CHEAL” value in experiment [3] (setting [5]), in experiment [3] (setting [6]) and in experiment [3] (setting [7]) was 9.0 in each case. Moreover, the “Preemergence herbicidal rating ORYSAT” value with ORYSAT (Rice, Tebonnet) (setting [5]) was found to be 0.0; in the experiment on ORYSAT (Rice, Tebonnet) (setting [6]), 0.0; with ORYSAT (Rice, Tebonnet) (setting [7]), 0.0. Moreover, the “herbicidal rating CASOB” value with CASOB (Sicklepod) (rate 0.0156 kg/ha) stood at 1.0; in the experiment on CASOB (Sicklepod) (rate 0.0313 kg/ha), 1.0; with CASOB (Sicklepod) (rate 0.0625 kg/ha), 4.0.

Take `C=CCN1C(=O)C(CC(=O)NO)SC1=Nc1cc(-n2c(=O)cc(C(F)(F)F)n(C)c2=O)c(F)cc1Cl` (stereo not drawn) [Compound 161, 3-Allyl-2-{{2-chloro-5-[3,6-dihydro-3-methyl-2,6-dioxo-4-(trifluoromethyl)-1(2H)-pyrimidinyl]-4-fluorophenyl}imino}-4-oxo-5-thiazolidineacetohydroxamic acid]: the “herbicidal rating CHEAL” value in experiment [1] (rate 0.0156 kg/ha) is given as 1.0; in experiment [1] (rate 0.0313 kg/ha), 5.0; in experiment [1] (rate 0.0625 kg/ha), 7.0; in experiment [1] (rate 0.1250 kg/ha), 9.0. Also, the “herbicidal rating TRZAWR” value came to 2.5 in experiment [2] (rate 0.0156 kg/ha), 3.5 in experiment [2] (rate 0.0313 kg/ha), 4.0 in experiment [2] (rate 0.0625 kg/ha) and 4.5 in experiment [2] (rate 0.1250 kg/ha). Further, the “Preemergence herbicidal rating CHEAL” value in experiment [3] (0.0156 kg/ha) is recorded as 6.0; in experiment [3] (0.0313 kg/ha), 7.0; in experiment [3] (0.0625 kg/ha), 9.0; in experiment [3] (0.1250 kg/ha), 9.0; in experiment [3] (0.2500 kg/ha), 9.0; in experiment [3] (0.5000 kg/ha), 9.0. Further, the “Preemergence herbicidal rating ORYSAT” value with ORYSAT (Rice, Tebonnet) (0.0156 kg/ha) was 0.0; in the experiment with ORYSAT (Rice, Tebonnet) (0.0313 kg/ha), 1.0; in the experiment on ORYSAT (Rice, Tebonnet) (0.0625 kg/ha) it was 7.0; in the experiment with ORYSAT (Rice, Tebonnet) (0.1250 kg/ha) it was 7.0; in the experiment on ORYSAT (Rice, Tebonnet) (0.2500 kg/ha) it was 9.0; in the experiment on ORYSAT (Rice, Tebonnet) (0.5000 kg/ha) it was 9.0. For the same compound, the “herbicidal rating CASOB” value in the experiment on CASOB (Sicklepod) (rate 0.0156 kg/ha) is on record as 0.0; with CASOB (Sicklepod) (rate 0.0313 kg/ha), 1.0; in the experiment on CASOB (Sicklepod) (rate 0.0625 kg/ha), 1.0; with CASOB (Sicklepod) (rate 0.1250 kg/ha), 3.0.

These data come from patent US20020137929A1, “1 - (3-heterocyclylphenyl) isothiourea, -isourea, -guanidine and -amidine herbicidal agents” (Intellectual Property Department, BASF Aktiengesellschaft, priority 1998, published 2002).
